Assay results taken from US5110825A, “Benzofuran derivative” (Shionogi & Co., Ltd., priority 1989, dated 1992).

biological target: T1, HMG-CoA reductase (Rattus norvegicus, UniProt P51639); assay: HMG-CoA reductase inhibitory activity (rat liver microsome); format: biochemical, rat (Sprague-Dawley); settings: [3-14C]HMG-CoA, 37° C., 30 minutes
T1 sequence (P51639 1-887): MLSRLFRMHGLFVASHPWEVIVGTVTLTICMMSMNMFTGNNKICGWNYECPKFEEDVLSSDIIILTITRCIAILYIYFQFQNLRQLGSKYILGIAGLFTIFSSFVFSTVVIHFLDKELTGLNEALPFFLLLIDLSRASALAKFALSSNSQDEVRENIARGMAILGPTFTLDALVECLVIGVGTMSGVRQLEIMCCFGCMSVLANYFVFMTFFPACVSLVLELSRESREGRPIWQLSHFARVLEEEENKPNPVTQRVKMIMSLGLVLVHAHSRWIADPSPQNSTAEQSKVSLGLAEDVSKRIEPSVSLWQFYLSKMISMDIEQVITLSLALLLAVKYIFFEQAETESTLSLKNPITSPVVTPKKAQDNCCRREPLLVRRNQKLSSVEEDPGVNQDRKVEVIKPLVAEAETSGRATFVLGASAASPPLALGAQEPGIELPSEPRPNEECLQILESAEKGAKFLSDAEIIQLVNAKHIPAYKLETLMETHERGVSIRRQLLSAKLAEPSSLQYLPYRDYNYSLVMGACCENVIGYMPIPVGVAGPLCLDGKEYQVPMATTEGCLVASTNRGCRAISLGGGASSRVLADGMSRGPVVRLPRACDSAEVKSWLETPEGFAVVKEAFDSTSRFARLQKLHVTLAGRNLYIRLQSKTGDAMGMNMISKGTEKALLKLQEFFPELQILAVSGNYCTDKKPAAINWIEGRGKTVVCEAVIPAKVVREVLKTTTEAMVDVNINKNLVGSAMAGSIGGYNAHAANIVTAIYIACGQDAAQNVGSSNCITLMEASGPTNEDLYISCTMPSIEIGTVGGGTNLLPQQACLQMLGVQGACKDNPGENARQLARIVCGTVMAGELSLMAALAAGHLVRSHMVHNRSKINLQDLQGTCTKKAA

Row | IC50 [nM] | SMILES
1 | 740 | CC(C)c1oc2cccc(-c3ccc(F)cc3)c2c1/C=C/[C@@H](O)C[C@@H](O)CC(=O)O
2 | 270 | Cc1ccc(C(C)C)c2c(/C=C/[C@@H](O)C[C@@H](O)CC(=O)O)c(-c3ccc(F)cc3)oc12 (relative stereo)
3 | 32 | Cc1cc(-c2ccc3occ(C(C)C)c3c2/C=C/[C@@H](O)C[C@@H](O)CC(=O)O)ccc1F (relative stereo)
4 | 90 | Cn1nnnc1C(/C=C/[C@@H](O)C[C@@H](O)CC(=O)O)=C(\c1ccc(F)cc1)c1cc2ccccc2o1 (relative stereo)
5 | 90 | Cn1nnnc1C(/C=C/[C@@H](O)C[C@@H](O)CC(=O)O)=C(/c1ccc(F)cc1)c1cc2ccccc2o1 (relative stereo)
6 | 900 | CC(C)c1cccc2c(-c3ccc(F)cc3)c(/C=C/[C@@H](O)C[C@@H](O)CC(=O)O)oc12 (relative stereo) [Ia-2, Sodium (3R*,5S*)-(E)-7-[3-(4-fluorophenyl)-7-isopropylbenzofuran-2-yl]-3,5-dihydroxy-6-heptenate]
7 | 110 | CC(C)c1c(/C=C/[C@@H](O)C[C@@H](O)CC(=O)O)oc2c(-c3ccc(F)cc3)cccc12 (relative stereo) [Ia-5, Sodium (3R*,5S*)-(E)-7-[3-isopropyl-7-(4-fluorophenylbenzofuran-2-yl]-3,5-dihydroxy-6-heptenate]
8 | 220 | Cc1cc(-c2c(CC[C@@H](O)C[C@@H](O)CC(=O)O)oc3c(C(C)C)cccc23)ccc1F (relative stereo) [Ia-11]
9 | 20 | CC(=O)N(C)c1ccc(-c2ccc(F)cc2)c2c(/C=C/[C@@H](O)C[C@@H](O)CC(=O)O)c(C(C)C)oc12 (relative stereo) [Ia-14, Sodium (3R*,5S*)-(E)-7-[7-(N-acetyl-N-methylamino)-4-(4-fluorophenyl)-2-isopropyl-3-yl]-3,5-dihydroxy-6-heptenate]
10 | 63 | CNc1ccc(-c2ccc(F)cc2)c2c(/C=C/[C@@H](O)C[C@@H](O)CC(=O)O)c(C(C)C)oc12 (relative stereo) [Ia-15, Sodium (3R*,5S*)-(E)-7-[4-(4-fluorophenyl)-2-isopropyl-7-methylamino-3-yl]-3,5-dihydroxy-6-heptenate]
